pIC50: −log10 of the molar value.
System: MDA-MB-436 cells
Experiment: Inhibition of proliferation of human breast cancer MDA-MB-436 cell line (CCK-8, 7 days)
Type: cell-based
Settings: Homo sapiens, 168 h, proliferation of MDA-MB-436, 7 days
Method: The cells were cultured in complete medium (DMEM medium +10% FBS+Insulin+glutathione). When the confluence reached about 80%, cells were digested and gently dispensed from the bottom of the dish with a 1 mL pipette. Cell suspension was collected and centrifuged at 500 rpm for 3 min. The supernatant was discarded, and the cell pellet were re-suspended in complete medium. The cells were seeded into a culture dish at an appropriate proportion, and then cultured in a 5% CO2 incubator at 37° C. The assay was carried out when the cells were in optimum condition and the confluence was reached 80%. Cells were harvested in the logarithmic growth phase by using 1 mL pipette gently and then centrifugated at 500 rpm for 3 min. The cells were resuspended by using refresh medium after removing the supernatant and then the cells were counted. The cells were seeded at 3000/well in a 96 well plate and incubated at 37° C. 5% CO2 incubator overnight. In the second day, cells were treated with compound at 8 serially diluted dose with 1000×final concentration in 100% DMSO. The compound was prepared as below: 1000×dilution tested compound solution to 40×test compound solution by adding 5μL, 1000×compound solution to 120 μL Medium (25-fold dilution). The solution was mixed by oscillation. DMSO was used as the control.
The medium was removed from the wells in the plate after the plate was taken out from incubator. Then, fresh medium of 195 μL/per well was added to the 96 well plate. 5μL/per well of 40×test compound solution was added into the 96 well plate. Finally, the plate was incubated for 7 days in a 37° C. 5% CO2 incubator. The medium containing compound was changed once on the fourth day. After 7 days, 20 μL of CCK-8 was added to each well and shake gently, then was cultured for 4 hours. The plate was shaken for 5 min after incubation, the absorbance values of 450 nm. and 650nm wavelengths were recorded respectively (OD=absorbance value of 450 nm−absorbance value of 650 nm) by using the multifunction readout instrument.
Data were analyzed by software GraphPad Prism 6.0. The inhibitory activity of compounds on cell proliferation was plotted using cell survival rate against the compound concentration as coordinates. Cell survival rate %=(ODcompound−ODbackground)/(ODDMSO−ODbackground)×100. The IC50 value was fitted by the s-shaped dose response curve equation: Y=100/(1+10^(log C−log IC50)), and C was the compound concentration.
Table 2 summarizes the inhibitory effect data (IC50) of the compounds on the proliferation of human breast cancer cells MDA-MB-436, wherein ++++ indicates 1<IC50≤10 nM; +++ indicates 10 nM<IC50≤100 nM; ++ indicates 100 nM<IC50≤1 μM; + indicates IC50>1 μM.

| pIC50 | SMILES |
| --- | --- |
| 6.00 to 7.00 | CNC(=O)c1ccc(N2CCN(Cc3ccc4c(=O)n(CCF)c(=O)[nH]c4c3)CC2)c(C)n1 [Example 20, 5-(4-((3-(2-fluoroethyl)-2,4-dioxo-1,2,3,4-tetrahydroquinazolin-7-yl)methyl)piperazin-1-yl)-N,6-dimethylpicolinamide] |
| 7.00 to 8.00 | CCn1c(=O)[nH]c2cc(CN3CCN(c4ccc(C(=O)NC)nc4Br)CC3)ccc2c1=O [Example 94, 6-bromo-5-(4-((3-ethyl-2,4-dioxo-1,2,3,4-tetrahydroquinazolin-7-yl)methyl)piperazin-1-yl)-N-methylpicolinamide] |
| < 6.00 | CCn1c(=O)[nH]c2cc(CN3CCN(c4ccc(C(=O)NC)cc4F)CC3)ccc2c1=O [Example 69, 4-(4-((3-ethyl-2,4-dioxo-1,2,3,4-tetrahydroquinazolin-7-yl)methyl)piperazin-1-yl)-3-fluoro-N-methyibenzamide] |
| < 6.00 | CCn1c(=O)[nH]c2cc(CN3CCN(c4ccc5c(c4)CCNC5=O)CC3)ccc2c1=O [Example 37, 3-ethyl-7-((4-(1-oxo-1,2,3,4-tetrahydroisoquinolin-6-yl)piperazin-1-yl)methyl)quinazoline-2,4(1H,3H)-dione] |
| 6.00 to 7.00 | CCn1c(=O)[nH]c2cc(CN3CCN(c4ccc(C(=O)NC)nc4Cl)CC3)c(C)cc2c1=O [Example 66, 6-chloro-5-(4-((3-ethyl-6-methyl-2,4-dioxo-1,2,3,4-tetrahydroquinazolin-7-yl)methyl)piperazin-1-yl)-N-methylpicolinamide] |
| 7.00 to 8.00 | CCNC(=O)c1ccc(N2CCN(Cc3ccc4c(c3)NC(=O)N(CC)C4)CC2)c(Cl)n1 [Example 118, 5-(4-((3-ethyl-2-oxo-1,2,3,4-tetrahydroquinazolin-7 yl)methyl)piperazin-1-yl)-6-chloro-N-ethylpicolinamide] |
| < 6.00 | CCn1c(=O)[nH]c2cc(CN3CCN(c4ccc5c(c4)CCN(C)C5=O)CC3)ccc2c1=O [Example 36, 3-ethyl-7-((4-(2-methyl-1-oxo-1,2,3,4-tetrahydroisoquinolin-6-yl)piperazin-1-yl)methyl)quinazoline-2,4(1H,3H)-dione] |
| 7.00 to 8.00 | CCNC(=O)c1ccc(N2CCN(Cc3cnc4c(=O)n(CC)c(=O)[nH]c4c3)CC2)c(Cl)n1 [Example 102, 6-chloro-N-ethyl-5-(4-((3-ethyl-2,4-dioxo-1,2,3,4-tetrahydropyrido[3,2-d]pyrimidin-7-yl)methyl)piperazin-1-yl)picolinamide] |
| 6.00 to 7.00 | CCn1c(=O)[nH]c2cc(CN3CCN(c4ccc(C(=O)NC)nc4F)CC3)cnc2c1=O [Example 9, 5-(4-((3-ethyl-2,4-dioxo-1,2,3,4-tetrahydropyrido[3,2-d]pyrimidin-7-yl)methyl)piperazin-1-yl)-6-fluoro-N-methylpicolinamide] |
| 7.00 to 8.00 | CCNC(=O)c1ccc(N2CCN(Cc3cc(F)c4c(c3)NC(=O)N(CC)C4)CC2)c(C)n1 [Example 121, N-ethyl-5-(4-((3-ethyl-5-fluoro-2-oxo-1,2,3,4-tetrahydroquinazolin-7-yl)methyl)piperazin-1-yl)-6-methylpicolinamide] |
| < 6.00 | CCn1c(=O)[nH]c2cc(CN3CCN(c4cnc(C(=O)NC)cn4)CC3)ccc2c1=O [Example 57, 5-(4-((3-ethyl-2,4-dioxo-1,2,3,4-tetrahydroquinazolin-7-yl)methyl)piperazin-1-yl)-N-methylpyrazine-2-carboxamide] |
| 7.00 to 8.00 | CCn1c(=O)[nH]c2cc(CN3CCN(c4ccc(C(=O)NC)nc4C)CC3)cc(Cl)c2c1=O [Example 59, 5-(4-((5-chloro-3-ethyl-2,4-dioxo-1,2,3,4-tetrahydroquinazolin-7-yl)methyl)piperazin-1-yl)-N,6-dimethylpicolinamide] |
| < 6.00 | CCn1c(=O)[nH]c2cc(CN3CCN(c4ccc(C(=O)N(C)C)nc4F)CC3)ccc2c1=O [Example 39, 5-(4-((3-ethyl-2,4-dioxo-1,2,3,4-tetrahydroquinazolin-7-yl)methyl)piperazin-1-yl)-6-fluoro-N,N-dimethylpicolinamide] |
| < 6.00 | CCn1c(=O)[nH]c2cc(CN3CCN(c4ccc(C(=O)NC)cc4)CC3)ccc2c1=O [Example 68, 4-(4-((3-ethyl-2,4-dioxo-1,2,3,4-tetrahydroquinazolin-7-yl)methyl)piperazin-1-yl)-N-methylbenzamide] |
| 7.00 to 8.00 | CNC(=O)c1ccc(N2CCN(Cc3ccc4c(=O)n(C)c(=O)[nH]c4c3F)CC2)c(F)n1 [Example 138, 6-fluoro-5-(4-((8-fluoro-3-methyl-2,4-dioxo-1,2,3,4-tetrahydroquinazolin-7-yl)methyl)piperazin-1-yl)-N-methylpicolinamide] |
| 8.00 to 9.00 | CCn1c(=O)[nH]c2cc(CN3CCN(c4ccc(C(=O)NC5CC5)nc4F)CC3)cc(F)c2c1=O [Example 141, N-cyclopropyl-5-(4-((3-ethyl-5-fluoro-2,4-dioxo-1,2,3,4-tetrahydroquinazolin-7-yl)methyl)piperazin-1-yl)-6-fluoropicolinamide] |
| < 6.00 | CCn1c(=O)[nH]c2cc(CN3CCN(c4ncc(C(=O)NC)cc4C)CC3)ccc2c1=O [Example 79, 6-(4-((3-ethyl-2,4-dioxo-1,2,3,4-tetrahydroquinazolin-7-yl)methyl)piperazin-1-yl)-N,5-dimethylnicotinamide] |
| 7.00 to 8.00 | CCNC(=O)c1ccc(N2CCN(Cc3ccc4c(=O)n(CC)c(=O)[nH]c4c3)CC2)c(Br)n1 [Example 95, 6-bromo-N-ethyl-5-(4-((3-ethyl-2,4-dioxo-1,2,3,4-tetrahydroquinazolin-7-yl)methyl)piperazin-1-yl)picolinamide] |
| < 6.00 | CCn1c(=O)[nH]c2cc(CN3CCN(c4ccc(C(=O)NC)cc4Cl)CC3)ccc2c1=O [Example 70, 3-chloro-4-(4-((3-ethyl-2,4-dioxo-1,2,3,4-tetrahydroquinazolin-7-yl)methyl)piperazin-1-yl)-N-methylbenzamide] |
| < 6.00 | CCn1c(=O)[nH]c2cc(CN3CCC(c4ccc(C(=O)NC)nc4C)CC3)ccc2c1=O [Example 58, 5-(1-((3-ethyl-2,4-dioxo-1,2,3,4-tetrahydroquinazolin-7-yl)methyl)piperidin-4-yl)-N,6-dimethylpicolinamide] |
| < 6.00 | CCn1c(=O)[nH]c2cc(CN3CCN(c4ccc(C(=O)NC)cc4C)CC3)ccc2c1=O [Example 71, 4-(4-((3-ethyl-2,4-dioxo-1,2,3,4-tetrahydroquinazolin-7-yl)methyl)piperazin- -yl)-N,3-dimethylbenzamide] |
| 7.00 to 8.00 | CCNC(=O)c1ccc(N2CCN(Cc3cc(F)c4c(=O)n(CC)c(=O)[nH]c4c3)CC2)c(C)n1 [Example 82, N-ethyl-5-(4-((3ethyl-5-fluoro-2,4-dioxo-1,2,3,4-tetrahydroquinazolin-7-yl)methyl)piperazin-1-yl)-6-methylpicolinamide] |
| 6.00 to 7.00 | CNC(=O)c1ccc(N2CCN(Cc3cc(F)c4c(=O)n(C)c(=O)[nH]c4c3)CC2)c(C)n1 [Example 105, 5-(4-((5-fluoro-3-methyl-2,4-dioxo-1,2,3,4-tetrahydroquinazolin-7-yl)methyl)piperazin-1-yl)-N,6-dimethylpicolinamide] |
| < 6.00 | CCn1c(=O)[nH]c2cc(CN3CCN(c4ccc5[nH]ncc5c4)CC3)ccc2c1=O [Example 112, 7-((4-(1H-indazol-5-yl)piperazin-1-yl)methyl)-3-ethylquinazoline-2,4(1H,3H)-dione] |
| 6.00 to 7.00 | CCn1c(=O)[nH]c2cc(CN3CCN(c4ccc(C(=O)NC)nc4C(F)F)CC3)ccc2c1=O [Example 35, 5-(4-((3-ethyl-2,4-dioxo-1,2,3,4-tetrahydroquinazolin-7-yl)methyl)piperazin-1-yl)-6-(difluoromethyl)-N-methylpicolinamide] |
| < 6.00 | CCn1c(=O)[nH]c2nc(CN3CCN(c4ccc(C(=O)NC)nc4C)CC3)ccc2c1=O [Example 74, 5-(4-((3-ethyl-2,4-dioxo-1,2,3,4-tetrahydropyrido[2,3-d]pyrimidin-7-yl)methyl)piperazin-1-yl)-N,6-dimethylpicolinamide] |
| 8.00 to 9.00 | CCn1c(=O)[nH]c2cc(CN3CCN(c4ccc(C(=O)NC)nc4F)CC3)cc(Cl)c2c1=O [Example 136, 5-(4-((5-chloro-3ethyl-2,4-dioxo-1,2,3,4-tetrahydroquinazolin-7-yl)methyl)piperazin-1-yl)-6-fluoro-N-methylpicolinamide] |
| 7.00 to 8.00 | CCn1c(=O)[nH]c2cc(CN3CCN(c4ccc(C(=O)NC)nc4C)CC3)ncc2c1=O [Example 81, 5-(4-((3-ethyl-2,4-dioxo-1,2,3,4-tetrahydropyrido[4,3-d]pyrimidin-7-yl)methyl)piperazin-1-yl)-N,6-dimethylpicolinamide] |

— patent US20240208969A1, “SUBSTITUTED FUSED BICYCLIC COMPOUNDS AS PARP INHIBITORS AND THE USE THEREOF” (IMPACT THERAPEUTICS (SHANGHAI), INC., priority 2021, published 2024)
